Experimental data reported in patent US10322088B2, “Sustained-release composition, method for fabricating, and use thereof” (NATIONAL TSING HUA UNIVERSITY, priority 2017, dated 2019).

Assays:
[1] = tested on: human umbilical vein endothelial cells; test: Tubular structure formation test on Matrigel; assay type: cell-based; details: 25 mM D-glucose
From the text: The human umbilical vein endothelial cells will migrate, arrange and form a tubular network structure without additional growth factors and the participation of other kinds of cells, thus the wound-healing efficiency is affected by the maintenance of the tubular structure of the cells as time goes on. Therefore, the ability to enhance cell migration and facilitate the angiogenesis of the sustained-release composition of the present disclosure is confirmed by the tubular structure formation test of the human umbilical vein endothelial cells. The specific experimental method is described below. First, 200 μL of the growth factor-reduced matrix Matrigel is added to each well of a 24-well plate respectively and then placed into the 37° C. incubator. After the growth factor-reduced matrix Matrigel is heated and become colloid, 2.5×10^4 of the human umbilical vein endothelial cells are seeded in each well of the aforementioned 24-well plate and then 200 μL of the medium (containing 25 mM D-glucose) is added to the wells respectively. […] Next, the tubular structure of each experimental group is observed via an inverted microscope at the time points of 6 hours, 12 hours, 24 hours and 48 hours, and the branching point number of each experimental group is calculated.

p38 protein = test: Signaling molecule activation test, p38 phosphorylation by ELISA; assay type: cell-based, human; details: HUVEC
Method: (§1) In the aforementioned description, the exogenous hydrogen sulfide can activate the signaling molecules related to the proliferation and the migration of the endothelial cells, such as ERK1/2 protein and p38 protein, so that the angiogenesis of the cells is enhanced. Thus, the ability to activate the signaling molecule of the sustained-release composition of the present disclosure is further estimated in this experiment. First, the human umbilical vein endothelial cells are seeded in a 6-well plate in a density of 10^5 cells per well. After incubating for 24 hours, the 1% FBS mediums containing the formula of the experimental group 1 or the experimental group 3 (all of them contain 25 mM D-glucose) respectively is added to each well of a 6-wells-plate. Finally, the cells are collected at specific time points and the phosphorylation level of p38 protein and ERK1/2 are quantified by the enzyme-linked immunosorbent assay (ELISA).

ERK1/2 protein = test: Signaling molecule activation test, ERK1/2 phosphorylation by ELISA; assay type: cell-based, human; details: HUVEC
Method: as §1

db/db mouse = test: In vivo wound healing test, full-thickness back skin wounds; details: after treating for 18 days, dressing replaced every 48 hours
From the text: According to the aforementioned results, the sustained-release composition of the present disclosure does have the ability to enhance the cell migration, the cell proliferation and the angiogenesis, and the ability to facilitate the wound healing of the sustained-release composition of the present disclosure is further confirmed by the following in vivo wound healing test. The animal model established method and the animal experiment procedures of the in vivo wound healing test in this experiment are complied with the “Laboratory Animal Care and Use Guide” published by the Council of Agriculture, Taiwan. The diabetic animal model used in this experiment is an 8-week-old BKS.Cg-Lepr^db/Lepr^db/JNarl mouse (also known as db/db mouse).
In the in vivo wound healing test, four symmetrically distributed rounded full-thickness wounds are created on the back skin of each mouse by the tissue sampler after the mice are anesthetized, wherein the diameter of each wound is 0.5 centimeter and the volume of each wound is 50 μL. The four wounds are applied with different treatments respectively and the dressing is replaced every 48 hours. […] The area changes of each wound at different time points are further analyzed by the image analysis software.

`S` [experimental group 1, sodium hydrosulfide] was tested, and the tubular structure ([1]; after incubating for 6 hours) was “can be observed”, the “tubular structure disappeared rate” value ([1]; up to 48 hours) was “reduced” and the “phosphorylation level of the p38 protein” value (p38 protein; after 24 hours and 48 hours) was “decreased”. The “phosphorylation level of the p38 protein” value (p38 protein; first hour) was “significantly increased”, the “phosphorylation level of the ERK1/2 protein” value (ERK1/2 protein; after 24 hours and 48 hours) was “decreased” and the “phosphorylation level of the ERK1/2 protein” value (ERK1/2 protein; first hour) was “significantly increased”. The “appearance of the wound” value (db/db mouse) was “unobvious”.
